Species: Rattus norvegicus
Assay: DrugMatrix - Regimen: Daily Repeat
Format: toxicity, organism-based, Sprague-Dawley
Set-up: regimen Daily Repeat, gender Male, age 6-8 weeks
Settings: in vivo, po, route oral GAVAGE, vehicle .5 % CMC; for ABSOLUTE BASOPHIL / ABSOLUTE EOSINOPHIL / ABSOLUTE LYMPHOCYTE / ABSOLUTE MONOCYTE / ABSOLUTE SEGMENTED NEUTROPHIL / BASOPHIL / EOSINOPHIL / ERYTHROCYTE COUNT / HEMATOCRIT / HEMOGLOBIN / LEUKOCYTE COUNT / LYMPHOCYTE / MEAN CORPUSCULAR HEMOGLOBIN CONCENTRATION / MEAN CORPUSCULAR VOLUME / MONOCYTE / NEUTROPHIL / NUCLEATED RED BLOOD CELLS / PLATELET COUNT: tissue Blood; for ALANINE AMINOTRANSFERASE / ALBUMIN / ALKALINE PHOSPHATASE / BLOOD UREA NITROGEN / CARBON DIOXIDE / CHLORIDE / CHOLESTEROL / CREATINE PHOSPHOKINASE / CREATININE / GLUCOSE / LACTATE DEHYDROGENASE / LIPASE / PHOSPHORUS / POTASSIUM / SODIUM / TOTAL BILIRUBIN / TOTAL PROTEIN: tissue Plasma
[1] = 0 mg/kg, 72 h, dose level Control, time 3 day
[2] = 0 mg/kg, 120 h, dose level Control, time 5 day
[3] = 60 mg/kg, 72 h, dose level High, time 3 day

CO[C@H]1C[C@@H]2CC[C@@H](C)[C@@](O)(O2)C(=O)C(=O)N2CCCC[C@H]2C(=O)O[C@H]([C@H](C)C[C@@H]2CC[C@@H](O)[C@H](OC)C2)CC(=O)[C@H](C)/C=C(\C)[C@@H](O)[C@@H](OC)C(=O)[C@H](C)C[C@H](C)/C=C/C=C/C=C/1C [SIROLIMUS]
ABSOLUTE BASOPHIL [1]: 0 CELLS/uL | ABSOLUTE EOSINOPHIL [1]: 47.67 CELLS/uL | ABSOLUTE LYMPHOCYTE [1]: 15937.67 CELLS/uL | ABSOLUTE MONOCYTE [1]: 138.33 CELLS/uL | ABSOLUTE SEGMENTED NEUTROPHIL [1]: 1443 CELLS/uL | BASOPHIL [1]: 0% | EOSINOPHIL [1]: 0.33% | ERYTHROCYTE COUNT [1]: 5.45 x10E6/uL | HEMATOCRIT [1]: 34.43% | HEMOGLOBIN [1]: 13.38 G/DL | LEUKOCYTE COUNT [1]: 17.57 x10E3/uL | LYMPHOCYTE [1]: 90.33% | MEAN CORPUSCULAR HEMOGLOBIN CONCENTRATION [1]: 38.88 G/DL | MEAN CORPUSCULAR VOLUME [1]: 63.27 fL | MONOCYTE [1]: 0.83% | NEUTROPHIL [1]: 8.5% | NUCLEATED RED BLOOD CELLS [1]: 0 /100WBC | PLATELET COUNT [1]: 1298 x10E3/uL | ALANINE AMINOTRANSFERASE [1]: 47.67 u/L | ALBUMIN [1]: 4.18 G/DL | ALKALINE PHOSPHATASE [1]: 398.5 u/L | BLOOD UREA NITROGEN [1]: 16 mg/dL | CARBON DIOXIDE [1]: 29.17 mmol/L | CHLORIDE [1]: 98.17 MEQ/L | CHOLESTEROL [1]: 68.83 mg/dL | CREATINE PHOSPHOKINASE [1]: 467.33 u/L | CREATININE [1]: 0.14 mg/dL | GLUCOSE [1]: 151.67 mg/dL | LACTATE DEHYDROGENASE [1]: 597.5 u/L | LIPASE [1]: 9.33 u/L | PHOSPHORUS [1]: 11.97 mg/dL | POTASSIUM [1]: 6.43 MEQ/L | SODIUM [1]: 140.68 MEQ/L | TOTAL BILIRUBIN [1]: 0.18 mg/dL | TOTAL PROTEIN [1]: 5.82 G/DL | ABSOLUTE BASOPHIL [2]: 0 CELLS/uL | ABSOLUTE EOSINOPHIL [2]: 31 CELLS/uL | ABSOLUTE LYMPHOCYTE [2]: 14327.83 CELLS/uL | ABSOLUTE MONOCYTE [2]: 102.83 CELLS/uL | ABSOLUTE SEGMENTED NEUTROPHIL [2]: 1321.67 CELLS/uL | BASOPHIL [2]: 0% | EOSINOPHIL [2]: 0.17% | ERYTHROCYTE COUNT [2]: 5.79 x10E6/uL | HEMATOCRIT [2]: 36.1% | LEUKOCYTE COUNT [2]: 15.78 x10E3/uL | LYMPHOCYTE [2]: 90.5% | MEAN CORPUSCULAR HEMOGLOBIN CONCENTRATION [2]: 39.22 G/DL | MEAN CORPUSCULAR VOLUME [2]: 62.4 fL | MONOCYTE [2]: 0.67% | NEUTROPHIL [2]: 8.67% | NUCLEATED RED BLOOD CELLS [2]: 0.17 /100WBC | PLATELET COUNT [2]: 1211.67 x10E3/uL | ALANINE AMINOTRANSFERASE [2]: 49 u/L | ALBUMIN [2]: 4.27 G/DL | ALKALINE PHOSPHATASE [2]: 356.67 u/L | BLOOD UREA NITROGEN [2]: 20.5 mg/dL | CARBON DIOXIDE [2]: 29.17 mmol/L | CHLORIDE [2]: 98 MEQ/L | CHOLESTEROL [2]: 69.83 mg/dL | CREATINE PHOSPHOKINASE [2]: 312 u/L | CREATININE [2]: 0.21 mg/dL | GLUCOSE [2]: 149.83 mg/dL | LACTATE DEHYDROGENASE [2]: 322 u/L | LIPASE [2]: 10 u/L | PHOSPHORUS [2]: 12 mg/dL | POTASSIUM [2]: 6.75 MEQ/L | SODIUM [2]: 142.8 MEQ/L | TOTAL BILIRUBIN [2]: 0.17 mg/dL | TOTAL PROTEIN [2]: 6.1 G/DL | ABSOLUTE BASOPHIL [3]: 0 CELLS/uL | ABSOLUTE EOSINOPHIL [3]: 0 CELLS/uL | ABSOLUTE LYMPHOCYTE [3]: 11212.33 CELLS/uL | ABSOLUTE SEGMENTED NEUTROPHIL [3]: 775.67 CELLS/uL | BASOPHIL [3]: 0% | EOSINOPHIL [3]: 0% | ERYTHROCYTE COUNT [3]: 6.32 x10E6/uL | HEMATOCRIT [3]: 39.93% | HEMOGLOBIN [3]: 15.57 G/DL | LEUKOCYTE COUNT [3]: 12.23 x10E3/uL | LYMPHOCYTE [3]: 91.67% | MEAN CORPUSCULAR HEMOGLOBIN CONCENTRATION [3]: 39 G/DL | MEAN CORPUSCULAR VOLUME [3]: 63.4 fL | MONOCYTE [3]: 2% | NEUTROPHIL [3]: 6.33% | NUCLEATED RED BLOOD CELLS [3]: 0 /100WBC | PLATELET COUNT [3]: 1112 x10E3/uL | ALANINE AMINOTRANSFERASE [3]: 51.33 u/L | ALBUMIN [3]: 4.23 G/DL | ALKALINE PHOSPHATASE [3]: 271 u/L | BLOOD UREA NITROGEN [3]: 18.33 mg/dL | CARBON DIOXIDE [3]: 29.67 mmol/L | CHLORIDE [3]: 97.67 MEQ/L | CHOLESTEROL [3]: 84.33 mg/dL | CREATINE PHOSPHOKINASE [3]: 323.67 u/L | CREATININE [3]: 0.19 mg/dL | GLUCOSE [3]: 192 mg/dL | LACTATE DEHYDROGENASE [3]: 111.33 u/L | LIPASE [3]: 10.33 u/L | PHOSPHORUS [3]: 11.37 mg/dL | POTASSIUM [3]: 5.46 MEQ/L | SODIUM [3]: 143.47 MEQ/L | TOTAL BILIRUBIN [3]: 0.17 mg/dL | TOTAL PROTEIN [3]: 5.9 G/DL | ABSOLUTE BASOPHIL (60 mg/kg, 120 h, dose level High, time 5 day): 0 CELLS/uL
